This passage reports PGE-2 change results from patent publication US11298391B1, “Topical skin health improvement compositions and administrations thereof” (Lorenol Laboratories, Inc., priority 2017, dated 2022).

The subject of the assay is PGE-2. In words: PGE-2 increase on UVR exposure: control, Retinol and Skin Therapeutic Composition 5 (FIG. 2). The class given is in vivo. As to conditions: in the presence of UVR. The text has this: FIG. 2 illustrates an implementation of the reduction and/or inhibition of skin inflammation as a result of topical application of Skin Therapeutic Composition 5.
A night serum may be prepare including Skin Therapeutic Composition 5. FIG. 2 illustrates an implementation of the reduction and/or inhibition of skin inflammation as a result of topical application of Skin Therapeutic Composition 5. […] Skin Therapeutic 5 encourages collagen growth and inhibits the overproduction of PGE-2 when exposed to UVR.

In the case of `CC1=C(/C=C/C(C)=C/C=C/C(C)=C/CO)C(C)(C)CCC1` [Retinol], the PGE-2 change entry is “increase in PGE-2”.
